Test results reported in patent US5705524A, “Thiepane compounds” (Gilead Sciences, Inc., priority 1995, dated 1998).
Like-named read-outs stand apart in the source and are kept apart here.

Columns and labels:
[1] = tested on: HIV IIIB; experiment: XTT Cell Culture Assay, cells infected with HIV IIIB (Example 35); assay type: cell-based; details: read-out: Cell Culture IC50
Procedure: The method of Weislow, O. S.; Kiser, R.; Fine, D. L.; Bader, J.; Shoemaker, R. H.; and Boyd, M. R.; J. Nat. Cancer Institute, 1989, 81(8) 577-586 was applied with the following minor modifications: Infection of cells with HIV IIIB was performed without polybrene. Cells were distributed to Microtiter wells containing the compound of the invention 4 h after infection with HIV IIIB. 2×XTT was added at 5-6 days post infection. 20 μl 2% Triton X-100 was added 1 hour after XTT addition.
1. Add 4 ml of XTT (5 mg/ml) to 8 ml of Deficient RPMI medium (no phenol red, no serum). Mix briefly at 45° C. to dissolve XTT.
2. Add 800 μl of PMS (0.2 mg/ml) to XTT/RPMI mixture.
3. Remove 100 μl of cell free media from each well of a 96 well plate and replace with 100 μl of the XTT/PMS mixture.
4. Incubate at 37° C. for 1.5-2 h.
5. Read absorbance at 450 nm. Absorbance values are directly proportional to cell viability.
(§1) The apparent IC50 and IC50 values reported below in Table 25 were determined using the assays of Example 34 and 35, respectively. The values are indicated as follows: +=10-50 μM, ++2-10 μM, and +++<2 μM.

[2] = molecular target: T1, HIV protease (Human immunodeficiency virus type 1 group M subtype B, UniProt P04585); experiment: biochemical
T1 construct: measurement of HIV-protease (HIV-PR) activity
Procedure: Compositions to be subjected to enzyme assay are lyophilited and diluted in DMSO to 100-1000 μM. Compositions having apparent IC50 <1 μm are diluted to 100 μM.
The assay is a fluorometric method for measurement of HIV-protease (HIV-PR) activity utilizing a synthetic peptide substrate for HIV-PR based on that described by Matayoshi, E. D.; Wang, G. T.; Krafft, G. A.; and Erickson, J. W.; Science, 1990, 247, 954-958; and Wang, G. T.; Huffker, J. A.; Matayoshi, E.; and Krafft, G. A.; Tetrahedron Lett., 1990, 165, 6493-6496.
1.0 mM ethylenediaminetetraacetic acid (EDTA)
1.0 mM dithiothreitol (DTT)
10% dimethyl sulfoxide (DMSO)
1 mg/mL bovine serum albumin (BSA) adjusted to pH 4.7
1. Prepare a solution of 2 μM HIV Protease Substrate 1 in the Assay Buffer.
2. Dispense the substrate solution into UV-pass fluorescence cuvettes (1 cm pathlength).
3. Set the excitation and emission monochromators of the spectrofluorimeter to 340 nm and 490 nm, respectively. To obtain the same kinetic constants as reported, cuvettes should be held at 37° C. throughout the assay.
4. Begin each assay by adding a small amount (<3% of the final volume) of HIV-PR-containing solution diluted tin the Assay Buffer.
5. Measure the initial rate of cleavage of fluorogenic substrate by monitoring the increase in fluorescence signal at 490 nm for 5-8 min at 37° C.
as §1

[3] = Human immunodeficiency virus 1, IIIB, HIV IIIB infected cells, XTT at 5-6 days post infection
[4] = fluorogenic peptide substrate, 37° C., pH 4.7, read-out: Apparent Enzyme IC50
[5] = Human immunodeficiency virus 1, IIIB
[6] = Apparent Enzyme IC50, fluorogenic peptide substrate, 37° C., pH 4.7
[7] = HIV IIIB infected cells, XTT at 5-6 days post infection

Row | Structure (SMILES) | IC50 [1, 3] [nM] | IC50 [2, 4] [nM] | other results
1 | O=S1(=O)[C@H](Cc2ccccc2)[C@H](OCc2cccnc2)[C@H](O)[C@@H](O)[C@@H](OCc2ccc[n+]([O-])c2)[C@H]1Cc1ccccc1 [120/16] | < 2000 | < 2000 | –
2 | O[C@@H]1[C@@H](O)[C@@H](OCc2ccccc2)CS[C@H](Cc2ccccc2)[C@@H]1OCc1ccccc1 [107/2] | – | 10000 to 50000 | –
3 | O=S1(=O)[C@H](Cc2ccccc2)[C@H](OCc2ccccc2)[C@H](O)[C@@H](O)[C@@H](OCc2ccccc2)[C@@H]1Cc1ccccc1 [108/18] | 10000 to 50000 | < 2000 | –
4 | O=S1(=O)[C@H](Cc2ccccc2)[C@H](OCc2cccnc2)[C@H](O)[C@@H](O)[C@@H](OCc2cccnc2)[C@H]1Cc1ccccc1 [120/15] | < 2000 | < 2000 | –
5 | O=[N+]([O-])c1cccc(CO[C@@H]2[C@H](O)[C@@H](O)[C@@H](OCc3cccc([N+](=O)[O-])c3)[C@@H](Cc3ccccc3)S(=O)(=O)[C@@H]2Cc2ccccc2)c1 [120/45] | – | – | IC50 [1, 5]: < 2000 nM; IC50 [2, 6]: < 2000 nM
6 | O=S1(=O)[C@H](Cc2ccccc2)[C@H](OCc2cccc(Br)c2)[C@H](O)[C@@H](O)[C@@H](OCc2cccc(Br)c2)[C@H]1Cc1ccccc1 [120/37] | – | < 2000 | –
7 | O=S1(=O)C[C@H](OCc2ccccc2)[C@H](O)[C@@H](O)[C@@H](OCc2ccccc2)[C@H]1Cc1ccccc1 [107/5] | 10000 to 50000 | < 2000 | –
8 | N#Cc1ccc(O[C@@H]2[C@H](O)[C@@H](O)[C@@H](Oc3ccc(C#N)cc3)CS(=O)(=O)[C@@H]2Cc2ccccc2)cc1 [107/15] | – | 2000 to 10000 | –
9 | Cc1cccc(CO[C@@H]2[C@H](O)[C@@H](O)[C@@H](OCc3cccc(C)c3)[C@@H](Cc3ccccc3)S(=O)(=O)[C@@H]2Cc2ccccc2)c1 [120/31] | < 2000 | < 2000 | –
10 | O=S1(=O)[C@H](Cc2ccccc2)[C@H](OCc2cccc(O)c2)[C@H](O)[C@@H](O)[C@@H](OCc2cccc(O)c2)[C@H]1Cc1ccccc1 [120/41] | – | < 2000 | –
11 | O=S1(=O)[C@@H](Cc2ccccc2)[C@@H](OCc2ccccc2)[C@@H](O)[C@H](O)[C@H](OCc2ccccc2)[C@@H]1Cc1ccccc1 [108/27] | 10000 to 50000 | 10000 to 50000 | –
12 | O=S1(=O)[C@H](Cc2ccccc2)[C@H](OCc2ccccc2)[C@H](O)[C@@H](O)[C@@H](OCc2ccccc2)[C@H]1Cc1ccccc1 [108/5] | < 2000 | – | –
13 | COc1cccc(CO[C@@H]2[C@H](O)[C@@H](O)[C@@H](OCc3cccc(OC)c3)[C@@H](Cc3ccccc3)S(=O)(=O)[C@@H]2Cc2ccccc2)c1 [120/34] | < 2000 | < 2000 | –
14 | [O-][S@@+]1[C@H](Cc2ccccc2)[C@H](OCc2ccccc2)[C@H](O)[C@@H](O)[C@@H](OCc2ccccc2)[C@@H]1Cc1ccccc1 [108/17] | 2000 to 10000 | 2000 to 10000 | –
15 | Cc1nc(CO[C@@H]2[C@H](O)[C@@H](O)[C@@H](OCc3csc(C)n3)[C@@H](Cc3ccccc3)S(=O)(=O)[C@@H]2Cc2ccccc2)cs1 [120/22] | 10000 to 50000 | < 2000 | –
16 | CC1(C)O[C@@H]2[C@@H](O1)[C@@H](OCc1ccccn1)[C@@H](Cc1ccccc1)S(=O)(=O)[C@H](Cc1ccccc1)[C@@H]2OCc1ccccn1 [120/6] | 2000 to 10000 | < 2000 | –
17 | O=S1(=O)[C@H](Cc2ccccc2)[C@H](OCc2cncs2)[C@H](O)[C@@H](O)[C@@H](OCc2cncs2)[C@H]1Cc1ccccc1 [120/25] | < 2000 | – | IC50 ([2]; read-out: Apparent Enzyme IC50): < 2000 nM
18 | [O-][S@@+]1C[C@H](OCc2ccccc2)[C@H](O)[C@@H](O)[C@@H](OCc2ccccc2)[C@H]1Cc1ccccc1 [107/4] | 10000 to 50000 | 2000 to 10000 | –
19 | Nc1cccc(CO[C@@H]2[C@H](O)[C@@H](O)[C@@H](OCc3cccc(N)c3)[C@@H](Cc3ccccc3)S(=O)(=O)[C@@H]2Cc2ccccc2)c1 [120/46] | < 2000 | < 2000 | –
20 | CC1(C)O[C@@H]2[C@@H](O1)[C@@H](OCc1cccc[n+]1[O-])[C@@H](Cc1ccccc1)S(=O)(=O)[C@H](Cc1ccccc1)[C@@H]2OCc1ccccn1 [120/7] | 2000 to 10000 | < 2000 | –
21 | O=S1(=O)[C@H](Cc2ccccc2)[C@H](OCc2ccccc2)[C@H](O)[C@@H](O)[C@H](OCc2ccccc2)[C@H]1Cc1ccccc1 [108/21] | < 2000 | < 2000 | –
22 | O=[N+]([O-])c1cccc(CO[C@@H]2[C@H](O)[C@@H](O)[C@@H](OCc3cccc([N+](=O)[O-])c3)[C@@H](Cc3ccccc3)[S+]([O-])[C@@H]2Cc2ccccc2)c1 (stereo partly shown) [120/44] | – | – | IC50 [1, 5]: < 2000 nM; IC50 [2, 6]: < 2000 nM
23 | O=S1(=O)[C@H](Cc2ccccc2)[C@H](OCc2cccc(OCc3ccccc3)c2)[C@H](O)[C@@H](O)[C@@H](OCc2cccc(OCc3ccccc3)c2)[C@H]1Cc1ccccc1 [120/40] | – | < 2000 | –
24 | O=S1(=O)[C@H](Cc2ccccc2)[C@H](OCc2ccncc2)[C@H](O)[C@@H](O)[C@@H](OCc2ccncc2)[C@H]1Cc1ccccc1 [120/19] | – | < 2000 | –
25 | O=S1(=O)[C@H](Cc2ccccc2)[C@H](Oc2ccccn2)[C@H](O)[C@@H](O)[C@@H](Oc2ccccn2)[C@H]1Cc1ccccc1 [120/28] | – | < 2000 | –
26 | N#Cc1ccc(O[C@@H]2[C@H](O)[C@@H](O)[C@@H](Oc3ccc(C#N)cc3)CS[C@@H]2Cc2ccccc2)cc1 [107/12] | – | 2000 to 10000 | –
27 | N#Cc1ccccc1O[C@@H]1[C@H](O)[C@@H](O)[C@@H](Oc2ccccc2C#N)CS(=O)(=O)[C@@H]1Cc1ccccc1 [107/10] | – | 2000 to 10000 | –
28 | [O-][S+]1[C@H](Cc2ccccc2)[C@H](OCc2ccccc2)[C@H](O)[C@@H](O)[C@@H](OCc2ccccc2)[C@H]1Cc1ccccc1 (stereo partly shown) [108/4] | – | < 2000 | IC50 [1, 7]: < 2000 nM
29 | [O-][S@+]1C[C@H](OCc2ccccc2)[C@H](O)[C@@H](O)[C@@H](OCc2ccccc2)[C@H]1Cc1ccccc1 [107/3] | – | 2000 to 10000 | –
30 | [O-][S+]1[C@H](Cc2ccccc2)[C@H](OCc2ccccc2)[C@H](O)[C@@H](O)[C@@H](OCc2ccccc2)[C@H]1Cc1ccccc1 (stereo partly shown) [120/3] | – | < 2000 | IC50 [1, 7]: 10000 to 50000 nM
